# Laboratory results: patent US7279494B2, “Antimicrobial [3.1.0] bicyclohexylphenyl-oxazolidinone derivatives and analogues” (Pfizer Inc., priority 2003, dated 2007)
# Like-named read-outs stand apart in the source and are kept apart here.
# Tests used:
# Format in all cases: cell-based
# [1] = test system: S. aureus UC9213; assay: MIC by standard agar dilution, S. aureus UC9213; details: Staphylococcus aureus, UC9213, Mueller Hinton agar, incubated overnight at 35° C.
# Description: (§1) The in vitro activity of compounds of the subject invention may be assessed by standard testing procedures such as the determination of minimum inhibitory concentration (MIC) by agar dilution as described in “Approved Standard. Methods for Dilution Antimicrobial Susceptibility Tests for Bacteria that Grow Aerobically,” 3rd ed., published 1993 by the National Committee for Clinical Laboratory standards, Villanova, Pa., USA.
# (§2) The in vitro MICs of test compounds may be determined by a standard agar dilution method. A stock drug solution of each analog is prepared in a preferred solvent, usually DMSO:H2O (1:3). Serial 2-fold dilutions of each sample are made using 1.0 mL aliquots of sterile distilled water. To each 1.0 mL aliquot of drug is added 9 mL of molten Mueller Hinton agar medium. The drug-supplemented agar is mixed, poured into 15×100 mm petri dishes, and allowed to solidify and dry prior to inoculation.
# (§3) Vials of each of the test organisms are maintained frozen in the vapor phase of a liquid nitrogen freezer. Test cultures are grown overnight at 35° C. on the medium appropriate for the organism. Colonies are harvested with a sterile swab, and cell suspensions are prepared in Trypticase Soy broth (TSB) to equal the turbidity of a 0.5 McFarland standard. A 1:20 dilution of each suspension is made in TSB. The plates containing the drug supplemented agar are inoculated with a 0.001 mL drop of the cell suspension using a Steers replicator, yielding approximately 10^4 to 10^5 cells per spot. The plates are incubated overnight at 35° C.
# (§4) Following incubation the Minimum Inhibitory Concentration (MIC μg/mL), the lowest concentration of drug that inhibits visible growth of the organism, is read and recorded.
# [2] = test system: S. pneumoniae UC9912; assay: MIC by standard agar dilution, S. pneumoniae UC9912; details: Streptococcus pneumoniae, UC9912, Mueller Hinton agar, incubated overnight at 35° C.
# Description: as §1, §2, §3, §4
# [3] = test system: H. influenzae 30063; assay: MIC by standard agar dilution, H. influenzae 30063
# Description: as §1, §2, §3, §4
# [4] = Haemophilus influenzae, 30063, agar dilution, Mueller Hinton agar, incubated overnight at 35° C., read-out: H. influenzae 30063 MIC
Compound,MIC [1] [µg/mL],MIC [2] [µg/mL],"MIC [3, 4] [µg/mL]","MIC ([3]; Haemophilus influenzae, 30063, read-out: H. influenzae 30063 MIC) [µg/mL]"
"CCNC(=O)N1C[C@@H]2[C@H](C1)[C@H]2c1ccc(N2C[C@H](CNC(=O)CC)OC2=O)cc1F [Example 25, exo-(1R,5S)-6-(4-{(5S)-5-[(propanoylamino)methyl]-2-oxo-1,3-oxazolidin-3-yl}-2-fluorophenyl)-3-azabicyclo[3.1.0]hexane-3-ethylcarboxamide]",8,4,32,
"CC(=O)NC[C@H]1CN(c2ccc([C@H]3[C@@H]4CN(C(=O)[C@H](C)O)C[C@@H]43)c(F)c2)C(=O)O1 [Example 29, N-[((5S)-3-{3-fluoro-4-[exo-(1R, 5S)-3-(2-(S)-hydroxypropanoyl)-3-azabicyclo[3.1.0]hex-6-yl]phenyl}-2-oxo-1,3-oxazolidin-5-yl)methyl]acetamide]",4,2,16,
"CC(=O)NC[C@H]1CN(c2ccc([C@H]3[C@@H]4CN(C(=O)C5CC5)C[C@@H]43)c(F)c2)C(=O)O1 [Example 30, N-[((5S)-3-{3-fluoro-4-[exo-(1R,5S)-3-cyclopropanecarbonyl-3-azabicyclo[3.1.0]hex-6-yl]phenyl}-2-oxo-1,3-oxazolidin-5-yl)methyl]acetamide]",4,4,16,
"CC(=O)NC[C@H]1CN(c2ccc([C@H]3[C@@H]4CN(C(=O)C(F)F)C[C@@H]43)c(F)c2)C(=O)O1 [Example 34, N-[((5S)-3-{3-fluoro-4-[exo-(1R,5S)-3-difluoroacetyl-3-azabicyclo[3.1.0]hex-6-yl]phenyl}-2-oxo-1,3-oxazolidin-5-yl)methyl]acetamide]",2,1,,8
"CC(=O)NC[C@H]1CN(c2ccc([C@H]3[C@@H]4CN(C(=O)CN)C[C@@H]43)c(F)c2)C(=O)O1 [Example 35, N-[((5S)-3-{3-fluoro-4-[exo-(1R,5S)-3-aminoacetyl-3-azabicyclo[3.1.0]hex-6-yl]phenyl}-2-oxo-1,3-oxazolidin-5-yl)methyl]acetamide]",8,2,16,
"CC(=O)NCC(=O)N1C[C@@H]2[C@H](C1)[C@H]2c1ccc(N2C[C@H](CNC(C)=O)OC2=O)cc1F [Example 36, N-[((5S)-3-{3-fluoro-4-[exo-(1R,5S)-3-acetylaminoacetyl-3-azabicyclo[3.1.0]hex-6-yl]phenyl}-2-oxo-1,3-oxazolidin-5-yl)methyl]acetamide]",8,4,32,
"CC(=O)NC[C@H]1CN(c2ccc([C@H]3[C@@H]4CN(C(=O)c5cn[nH]c5)C[C@@H]43)c(F)c2)C(=O)O1 [Example 40, N-[((5S)-3-{3-fluoro-4-[exo-(1R,5S)-3-(1H-pyrazole-4-carbonyl)-3-azabicyclo[3.1.0]hex-6-yl]phenyl}-2-oxo-1,3-oxazolidin-5-yl)methyl]acetamide]",4,2,16,
"CC(=O)NC[C@H]1CN(c2ccc([C@H]3[C@@H]4CN(C(=O)[C@H]5CCCO5)C[C@@H]43)c(F)c2)C(=O)O1 [Example 41, N-[((5S)-3-{3-fluoro-4-[exo-(1R,5S)-3-(tetrahydrofuran-2-(R)-carbonyl)-3-azabicyclo[3.1.0]hex-6-yl]phenyl}-2-oxo-1,3-oxazolidin-5-yl)methyl]acetamide]",4,2,32,
"CC(=O)NC[C@H]1CN(c2ccc([C@H]3[C@@H]4CN(C(=O)[C@@H]5CCCO5)C[C@@H]43)c(F)c2)C(=O)O1 [Example 42, N-[((5S)-3-{3-fluoro-4-[exo-(1R,5S)-3-(tetrahydrofaran-2-(S)-carbonyl)-3-azabicyclo[3.1.0]hex-6-yl]phenyl}-2-oxo-1,3-oxazolidin-5-yl)methyl]acetamide]",8,4,32,
"CC(=O)NC[C@H]1CN(c2ccc([C@H]3[C@@H]4CN(c5ncccn5)C[C@@H]43)c(F)c2)C(=O)O1 [Example 43, N-[((5S)-3-{3-fluoro-4-[exo-(1R,5S)-3-(pyrimidin-2-yl)-3-azabicyclo[3.1.0]hex-6-yl]phenyl}-2-oxo-1,3-oxazolidin-5-yl)methyl]acetamide]",4,1,32,
"CC(=O)NC[C@H]1CN(c2ccc([C@H]3[C@@H]4CN(c5nn[nH]n5)C[C@@H]43)c(F)c2)C(=O)O1 [Example 44, N-[((5S)-3-{3-fluoro-4-[exo-(1R,5S)-3-(2H-tetrazol-5-yl)-3-azabicyclo[3.1.0]hex-6-yl]phenyl}-2-oxo-1,3-oxazolidin-5-yl)methyl]acetamide]",16,32,64,

# Second part, led by results:
MIC [1] [µg/mL],MIC [2] [µg/mL],"MIC [3, 4] [µg/mL]",Compound,"MIC ([3]; Haemophilus influenzae, 30063, read-out: H. influenzae 30063 MIC) [µg/mL]"
4,2,16,"CCC(=O)NC[C@H]1CN(c2ccc([C@H]3[C@@H]4CN(C(=O)NC)C[C@@H]43)c(F)c2)C(=O)O1 [Example 24, exo-(1R,5S)-6-(4-{(5S)-5-[(propanoylamino)methyl]-2-oxo-1,3-oxazolidin-3-yl]-2-fluorophenyl)-3-azabicyclo[3.1.0]hexane-3-methylcarboxamide]",
1,0.5,4,"CCC(=O)NC[C@H]1CN(c2ccc([C@H]3[C@@H]4CN(C(=O)CO)C[C@@H]43)c(F)c2)C(=O)O1 [Example 26, N-[((5S)-3-{3-fluoro-4-[exo-(1R,5S)-3-glycoloyl-3-azabicyclo[3.1.0]hex-6-yl]phenyl}-2-oxo-1,3-oxazolidin-5-yl)methyl]propanamide]",
2,0.5,8,"CCC(=O)NC[C@H]1CN(c2ccc([C@H]3[C@@H]4CN(C(=O)COC)C[C@@H]43)c(F)c2)C(=O)O1 [Example 27, N-[((5S)-3-{3-fluoro-4-[exo-(1R,5S)-3-methoxyacetyl-3-azabicyclo[3.1.0]hex-6-yl]phenayl}-2-oxo-1,3-oxazolidin-5-yl)methyl]propanamide]",
4,4,8,"CCC(=O)NC[C@H]1CN(c2ccc([C@H]3[C@@H]4CN(C(=O)[C@@H](O)CO)C[C@@H]43)c(F)c2)C(=O)O1 [Example 28, N-[((5S)-3-{3-fluoro-4-[exo-(1R,5S)-3-((2S)-2,3-dihydroxypropanoyl)-3-azabicyclo[3.1.0]hex-6-yl]phenyl}-2-oxo-1,3-oxazolidin-5-yl)methyl]propanamide]",
2,2,16,"CC(=O)NC[C@H]1CN(c2ccc([C@H]3[C@@H]4CN(C(=O)C5(O)CC5)C[C@@H]43)c(F)c2)C(=O)O1 [Example 31, N-[((5 S)-3-{3-fluoro-4-[exo-(1R,5S)-3-(1-hydroxy-cyclopropanecarbonyl)-3-azabicyclo[3.1.0]hex-6-yl]phenyl}-2-oxo-1,3-oxazolidin-5-yl)methyl]acetamide]",
2,0.5,8,"CC(=O)NC[C@H]1CN(c2ccc([C@H]3[C@@H]4CN(C(=O)C(C)(C)O)C[C@@H]43)c(F)c2)C(=O)O1 [Example 32, N-[((5S)-3-{3-fluoro-4-[exo-(1R,5S)-3-(2-hydroxy-2-methyl-propanoyl)-3-azabicyclo[3.1.0]hex-6-yl]phenyl}-2-oxo-1,3-oxazolidin-5-yl)methyl]acetamide]",
2,2,16,"CC(=O)NC[C@H]1CN(c2ccc([C@H]3[C@@H]4CN(C(=O)[C@@H](O)C(F)(F)F)C[C@@H]43)c(F)c2)C(=O)O1 [Example 33, N-[((5S)-3-{3-fluoro-4-[exo-(1R,5S)-3-(3,3,3-trifluoro-2-(S)-hydroxypropanoyl)-3-azabicyclo[3.1.0]hex-6-yl]phenyl}-2-oxo-1,3-oxazolidin-5-yl)methyl]acetamide]",
1,0.5,8,"CC(=O)NC[C@H]1CN(c2ccc([C@H]3[C@@H]4CN(C(=O)c5ccno5)C[C@@H]43)c(F)c2)C(=O)O1 [Example 37, N-[((5S)-3-{3-fluoro-4-[exo-(1R,5S)-3-(isoxazole-5-carbonyl)-3-azabicyclo[3.1.0]hex-6-yl]phenyl}-2-oxo-1,3-oxazolidin-5-yl)methyl]acetamide]",
2,2,8,"CC(=O)NC[C@H]1CN(c2ccc([C@H]3[C@@H]4CN(C(=O)c5cc[nH]n5)C[C@@H]43)c(F)c2)C(=O)O1 [Example 38, N-[((5S)-3-{3-fluoro-4-[exo-(1R,5S)-3-(1H-pyrazole-3-carbonyl)-3-azabicyclo[3.1.0]hex-6-yl]phenyl}-2-oxo-1,3-oxazolidin-5-yl)methyl]acetamide]",
0.5,1,4,"CC(=O)NC[C@H]1CN(c2ccc([C@H]3[C@@H]4CN(C(=O)c5c[nH]cn5)C[C@@H]43)c(F)c2)C(=O)O1 [Example 39, N-[((5S)-3-{3-fluoro-4-[exo-(1R,5S)-3-(1H-imidazole-4-carbonyl)-3-azabicyclo[3.1.0]hex-6-yl]phenyl}-2-oxo-1,3-oxazolidin-5-yl)methyl]acetamide]",
